Converted amounts (≈) assume the structure as drawn. “And” between values parts separate entries of the source, which are not always exact repeats. Equal values may be shown once.

The subject of series [1] is M. tuberculosis H37Rv. The experiment in a line: Agar dilution assay (ADA), MIC. As to conditions: for anti-TB activity relative to the drug NTZ (times better / more potent): MIC compared with NTZ MIC 52.12 μM; for MIC / Mtb H37Rv MIC: 37° C., 4 weeks; for MIC: read-out: Mtb H37Rv MIC. The series is classed as cell-based, Mycobacterium tuberculosis.
In series [2] the test system is M. tuberculosis H37Rv. Nature of the series: BACTEC-460TB radiometric assay, MIC and growth index. The settings on record: for MIC: Mycobacterium tuberculosis, H37RV, BACTEC-460TB radiometric assay, read-out: Mtb H37Rv MIC (BACTEC); for Mtb growth inhibition, growth index (GI) vs days: day 1 to day 11, FIG. 5. The series is classed as cell-based, Mycobacterium tuberculosis.

In series [3] the test system is replicating and nonreplicating Mtb. As to conditions: cited from earlier work.
A further series has as its system Vero monkey kidney cells. The experiment in a line: Cytotoxicity, Resazurin assay. The format is cell-based. As to conditions: for cytotoxicity to Vero cells: FIG. 4; for selectivity index (SI): ratio CC50:MIC as stated in text b128 (fits BACTEC MIC); for SI (selectivity index): ratio CC50:MIC, Table 1 (agar dilution MIC). The protocol:
(§1) Cytotoxicity Studies: The compounds for cytotoxicity were tested in an in vitro model for toxicity with Vero monkey kidney cells using Resazurin assay. […] Cells were exposed to dilutions of experimental and control drugs in triplicate for […] with each compound at a range of concentrations from 100-1.56 μg/ml. […] Each well had 100 μL of the test material in serially descending concentrations. After 72 h of incubation, 10 μL of Resazurin indicator solution (0.1%) was added and incubation was continued for 4-5 h. Any color change from purple to pink or colorless was recorded as positive. Fluorescence was measured of each sample with excitation wavelength at 530 nm and emission wavelength at 590 nm using the BMG Polar Star Galaxy. The CC50 values (50% inhibitory concentrations) were calculated by plotting fluorescence values using Microsoft excel template. The data from this toxicity testing and MIC values were used to calculate a selectivity index (SI), the ratio of CC50: MIC.

Series [4] is described as follows: Cytotoxicity, Resazurin assay. The series is classed as cell-based, monkey. The settings on record: monkey, Resazurin assay, 72 h; read-out: In vitro cytotoxicity Vero cells CC50. Here is the method: as §1
[5] abbreviates: Mycobacterium tuberculosis, H37RV, 672 h.

As for `Fc1ccc(Nc2nc(-c3ccc(F)cc3)cs2)cc1` [Compound 6, N,4-bis(4-fluorophenyl)thiazol-2-amine], the melting point is 127 °C. For the same molecule, the “anti-TB activity relative to the drug NTZ (times better / more potent)” value with M. tuberculosis H37Rv [1] was “about 9 times”. The minimum inhibitory concentration (MIC) with M. tuberculosis H37Rv [1] (setting [5]) is 6.25 µM and 1.8 µg/mL. Moreover, the minimal inhibitory concentration (MIC) with M. tuberculosis H37Rv [2] is 12.5 µM (≈ 3.6 µg/mL). Besides, the “Mtb growth inhibition, growth index (GI) vs days” value in the series on M. tuberculosis H37Rv [2] (≧12.5 μM) is listed as “effectively inhibit Mtb growth till day 11”.
With `COc1ccc(-c2csc(Nc3ccccc3C(F)(F)F)n2)cc1OC` [Compound 8a, 4-(3,4-dimethoxyphenyl)-N-(2-(trifluoromethyl)phenyl)thiazol-2-amine], the melting point worked out at 188 °C. Further, the MIC with M. tuberculosis H37Rv [1] (setting [5]) is more than 12.5 µg/mL.
In the case of `CC(=O)Oc1ccccc1C(=O)Nc1ncc([N+](=O)[O-])s1` [Nitazoxanide (NTZ), Nitazoxanide], the MIC in series [3] (nonreplicating Mtb) is 60.38 μM and 16 μg/mL.
For the molecule `O=C(Nc1ncc([N+](=O)[O-])s1)c1ccccc1O` [Tizaxonide (TIZ), Tizaxonide], in series [3] (replicating Mtb, literature value listed with the agar dilution data), the “MIC of reference NTZ/TIZ, Mtb H37Rv” value was 60.38 μM and 16.00 μg/mL.
Consider `COc1cccc2c1CCCC2=NNc1nc(-c2ccc(F)cc2)cs1` [Compound 1c, 4-(4-fluorophenyl)-2-(2-(5-methoxy-3,4-dihydronaphthalen-1(2H)-ylidene)hydrazinyl)thiazole], for which the melting point is 198 °C. In addition, in the series with M. tuberculosis H37Rv [1] (listed as is), the MIC came to 17.03 µM. Besides, in the series on M. tuberculosis H37Rv [1] (setting [5]), the MIC was 17 µM and 6.25 µg/mL. The cytotoxic concentration (CC50) in the series with Vero monkey kidney cells (Resazurin assay, 72 h, read-out: In vitro cytotoxicity Vero cells CC50) was more than 300 µM. For the same molecule, the “cytotoxicity to Vero cells” value in the series on Vero monkey kidney cells (Resazurin assay) is listed as “failed to show any cytotoxicity”. In addition, in the series with Vero monkey kidney cells, the “selectivity index (SI)” value was not below 48 and the “SI (selectivity index)” value was “≧17”. Further, the cytotoxic concentration (CC50) at 72 h in series [4] was more than 244 µM. Besides, in the series with M. tuberculosis H37Rv [2] (6.25 μM), the “Mtb growth inhibition, growth index (GI) vs days” value was “comparatively lesser effective on day 10 onwards”. The minimal inhibitory concentration (MIC) in the series with M. tuberculosis H37Rv [2] turned out to be 6.25 µM (≈ 2.3 µg/mL).
Take `COc1ccc(-c2csc(Nc3ccccc3C(F)(F)F)n2)cc1` [Compound 8d, 4-(4-methoxyphenyl)-N-(2-(trifluoromethyl)phenyl)thiazol-2-amine]: in the series on M. tuberculosis H37Rv [1] (setting [5]), the minimum inhibitory concentration (MIC) is more than 12.5 µg/mL.
Molecule `COc1cccc2c1CCCC2=NNc1nc(-c2cccc([N+](=O)[O-])c2)cs1` [Compound 1d, 2-(2-(5-methoxy-3,4-dihydronaphthalen-1(2H)-ylidene)hydrazinyl)-4-(3-nitrophenyl)thiazole] had a melting point of 185 °C. Besides, the “anti-TB activity relative to the drug NTZ (times better / more potent)” value in the series with M. tuberculosis H37Rv [1] is recorded as “about 2 times”. Moreover, the minimum inhibitory concentration (MIC) in the series on M. tuberculosis H37Rv [1] (setting [5]) was 31.7 µM and 12.5 µg/mL.
For `Fc1ccc(-c2csc(NN=Cc3cn(Cc4ccc(Cl)cc4Cl)c4ccccc34)n2)cc1` [Compound 2c, 2-(2-((1-(2,4-dichlorobenzyl)-1H-indol-3-yl)methylene)hydrazinyl)-4-(4-fluorophenyl)thiazole], the melting point came out at 198 °C. In addition, the “Mtb H37Rv MIC” value with M. tuberculosis H37Rv [1] is more than 12.50 µg/mL. Besides, the MIC in the series with M. tuberculosis H37Rv [1] (setting [5]) was more than 12.5 µg/mL.
`Fc1ccc(-c2csc(Nc3ccccc3C(F)(F)F)n2)cc1` [Compound 8b, 4-(4-fluorophenyl)-N-(2-(trifluoromethyl)phenyl)thiazol-2-amine] showed a melting point of 184 °C. In addition, the MIC in the series on M. tuberculosis H37Rv [1] (setting [5]) is more than 12.5 µg/mL.
For `O=[N+]([O-])c1cccc(-c2csc(Nc3ccccc3C(F)(F)F)n2)c1` [Compound 8c, 4-(3-nitrophenyl)-N-(2-(trifluoromethyl)phenyl)thiazol-2-amine] the same measures were 182 °C and more than 12.5 µg/mL.
As for `COc1ccc(OC)c(Nc2nc(-c3ccc(F)cc3)cs2)c1` [Compound 7a, N-(2,5-dimethoxyphenyl)-4-(4-fluorophenyl)thiazol-2-amine], the melting point is 160 °C. Moreover, the MIC with M. tuberculosis H37Rv [1] (setting [5]) is more than 12.5 µg/mL.
For `COc1ccc(-c2csc(Nc3cc(OC)ccc3OC)n2)cc1` [Compound 7c, N-(2,5-dimethoxyphenyl)-4-(4-methoxyphenyl)thiazol-2-amine] the same measures were 104 °C and more than 12.5 µg/mL.
Take `COc1cccc2c1CCCC2=NNc1nc(-c2ccc(Cl)cc2Cl)cs1` [Compound 1b, 4-(2,4-dichlorophenyl)-2-(2-(5-methoxy-3,4-dihydronaphthalen-1(2H)-ylidene)hydrazinyl)thiazole]: the melting point came to 200 °C. Further, the “anti-TB activity relative to the drug NTZ (times better / more potent)” value in the series on M. tuberculosis H37Rv [1] is on record as “about 2 times”. Moreover, the MIC in the series on M. tuberculosis H37Rv [1] (setting [5]) is 29.9 µM and 12.5 µg/mL.
`Clc1ccc(Cn2cc(C=NNc3nc(-c4ccc(Cl)cc4Cl)cs3)c3ccccc32)c(Cl)c1` [Compound 2b, 2-(2-((1-(2,4-dichlorobenzyl)-1H-indol-3-yl)methylene)hydrazinyl)-4-(2,4-dichlorophenyl)thiazole] displayed a melting point of 185 °C. For the same molecule, the minimal inhibitory concentration (MIC) in the series with M. tuberculosis H37Rv [1] (setting [5]) was 22.9 µM and 12.5 µg/mL.
In turn, `COc1ccc(-c2csc(NN=Cc3cn(Cc4ccc(Cl)cc4Cl)c4ccccc34)n2)cc1OC` [Compound 2a, 2-(2-((1-(2,4-dichlorobenzyl)-1H-indol-3-yl)methylene)hydrazinyl)-4-(3,4-dimethoxyphenyl)thiazole] had a melting point of 205 °C. Also, the “Mtb H37Rv MIC” value in the series with M. tuberculosis H37Rv [1] was more than 12.50 µg/mL. The minimum inhibitory concentration (MIC) in the series with M. tuberculosis H37Rv [1] (setting [5]) was more than 12.5 µg/mL.
As to `[H]/N=C(/N)N[C@H]1[C@H](O)[C@@H](O)[C@H](O[C@@H]2O[C@@H](C)[C@](O)(C=O)[C@H]2O[C@@H]2O[C@@H](CO)[C@H](O)[C@@H](O)[C@@H]2NC)[C@@H](N/C(N)=N\[H])[C@@H]1O` [Streptomycin (SM), Streptomycin, reference compound], in the series with M. tuberculosis H37Rv [2], the MIC worked out at 6 µM (≈ 3.49 µg/mL).
In turn, `COc1ccc(OC)c(Nc2nc(-c3cccc([N+](=O)[O-])c3)cs2)c1` [Compound 7b, N-(2,5-dimethoxyphenyl)-4-(3-nitrophenyl)thiazol-2-amine] gave a melting point of 154 °C. Moreover, the MIC in the series on M. tuberculosis H37Rv [1] (setting [5]) is more than 12.5 µg/mL.
`COc1ccc(-c2csc(NN=C3CCCc4c(OC)cccc43)n2)cc1OC` [Compound 1a, 4-(3,4-dimethoxyphenyl)-2-(2-(5-methoxy-3,4-dihydronaphthalen-1(2H)-ylidene)hydrazinyl)-thiazole] registered a melting point of 200 °C. In addition, the MIC with M. tuberculosis H37Rv [1] (setting [5]) was 15.3 µM and 6.25 µg/mL. The “cytotoxicity to Vero cells” value in the series on Vero monkey kidney cells (Resazurin assay) is given as “failed to show any cytotoxicity”. For the same molecule, in the series on Vero monkey kidney cells, the “selectivity index (SI)” value is recorded as not below 39 and the “SI (selectivity index)” value was “≧16”. The CC50 at 72 h in series [4] was more than 244 µM. Further, in the series with M. tuberculosis H37Rv [2] (6.25 μM), the “Mtb growth inhibition, growth index (GI) vs days” value was “very effective for inhibiting the Mtb growth till day 11”. In the series on M. tuberculosis H37Rv [2], the minimal inhibitory concentration (MIC) was 6.25 µM (≈ 2.56 µg/mL).
As to `NNC(=O)c1ccncc1` [Isoniazid (INH), Isoniazid, reference compound], in the series with M. tuberculosis H37Rv [1] (setting [5]), the MIC was less than 1 µg/mL.

The record behind these values is patent publication US20140235863A1, “SUBSTITUTED 4-ARYLTHIAZOLES AND PROCESS OF PREPARATION THEREOF” (priority 2011, published 2014).
